Measurements published in ChEMBL document CHEMBL1201862, “PubChem BioAssay data set” (2004).
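96-well plates; 48 h exposure; 5 concentrations. Endpoints by linear interpolation between flanking doses. Not reached: highest tested concentration assigned. GI50 = concentration required for 50% inhibition of growth.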 Calls of active or inactive are those of the source. No stated cut-off is given here; in the data, active = GI50 up to about 1.1 µM and inactive = higher.

Assays:
Experiment in all cases: growth of human tumour cells (NCI), 48 h
SN12C = system: SN12C
NCI-H23 = system: NCI-H23
HCC 2998 = system: HCC 2998
UACC-62 = system: UACC-62
K562 = system: K562
NCI-H460 = system: NCI-H460
CCRF-CEM = system: CCRF-CEM
SNB-75 = system: SNB-75
NCI-H226 = system: NCI-H226
HOP-62 = system: HOP-62
LOX IMVI = system: LOX IMVI
T47D = system: T47D
Hs-578T = system: Hs-578T
BT-549 = system: BT-549
SK-OV-3 = system: SK-OV-3
RPMI-8226 = system: RPMI-8226
PC-3 = system: PC-3
MDA-MB-231 = system: MDA-MB-231
UO-31 = system: UO-31
RXF 393 = system: RXF 393

Measured: GI50

CCCCn1c(C)c(C(=O)OCC)c2cc(OCc3ccc(C(=O)Nn4c(C)ccc4C)cc3)c(Br)cc21
inactive: SN12C > 100 µM | NCI-H23 > 100 µM | HCC 2998 > 100 µM | UACC-62 > 100 µM | K562 > 100 µM | NCI-H460 > 100 µM | CCRF-CEM > 100 µM | SNB-75 > 100 µM | NCI-H226 > 100 µM | HOP-62 > 100 µM | LOX IMVI > 100 µM | T47D > 100 µM | Hs-578T > 100 µM | BT-549 > 100 µM | SK-OV-3 > 100 µM | RPMI-8226 > 100 µM | PC-3 > 100 µM

O=C1N[C@@H]2O[C@H](CNC(=O)c3cc(Br)c[nH]3)C[C@]2(O)N1.O=C1N[C@H]2O[C@H](CNC(=O)c3cc(Br)c[nH]3)C[C@@]2(O)N1
inactive: SN12C > 100 µM | MDA-MB-231 > 100 µM | NCI-H23 > 100 µM | UACC-62 > 100 µM | K562 > 100 µM | NCI-H460 > 100 µM | SNB-75 > 100 µM | NCI-H226 > 100 µM | HOP-62 > 100 µM | UO-31 > 100 µM | T47D > 100 µM | Hs-578T > 100 µM | BT-549 > 100 µM | SK-OV-3 > 100 µM | RPMI-8226 > 100 µM | PC-3 > 100 µM

CCOC(OCC)C(CC)[Se]c1ccccc1[N+](=O)[O-] (stereo not given)
inactive: SN12C 7.94 µM | MDA-MB-231 9.2 µM | NCI-H23 3.03 µM | HCC 2998 1.56 µM | UACC-62 2.44 µM | K562 1.93 µM | NCI-H460 2.81 µM | CCRF-CEM 2 µM | SNB-75 3.45 µM | RXF 393 1.8 µM | NCI-H226 7.96 µM | HOP-62 3.08 µM | UO-31 7.43 µM | LOX IMVI 5.33 µM | T47D 9.06 µM | Hs-578T 3.18 µM | SK-OV-3 2.31 µM | RPMI-8226 3.44 µM | PC-3 3.27 µM

O=c1[nH]c2ccccc2c(=O)n1/N=C/c1ccc(O)cc1
inactive: SN12C 55.2 µM | MDA-MB-231 45.5 µM | NCI-H23 > 100 µM | UACC-62 42.4 µM | K562 > 100 µM | NCI-H460 > 100 µM | CCRF-CEM 66.4 µM | SNB-75 41.4 µM | NCI-H226 > 100 µM | HOP-62 20.9 µM | UO-31 > 100 µM | LOX IMVI 60.4 µM | T47D > 100 µM | Hs-578T 31.7 µM | BT-549 64.3 µM | SK-OV-3 > 100 µM | RPMI-8226 > 100 µM | PC-3 73.5 µM

O=C(O)[C@@]1(Cc2ccc(O)cc2)C[C@@H]2Cc3ccccc3N2N1
inactive: SN12C > 100 µM | MDA-MB-231 > 100 µM | NCI-H23 > 100 µM | UACC-62 > 100 µM | CCRF-CEM > 100 µM | NCI-H226 > 100 µM | HOP-62 > 100 µM | UO-31 > 100 µM | LOX IMVI > 100 µM | T47D > 100 µM | Hs-578T > 100 µM | BT-549 > 100 µM | SK-OV-3 > 100 µM | RPMI-8226 > 100 µM | PC-3 > 100 µM

COc1ccc(Nc2nc(NNC(=O)Cc3ccccc3)nc(NNC(=O)c3ccncc3)n2)cc1
inactive: SN12C > 10 µM | MDA-MB-231 > 10 µM | NCI-H23 > 10 µM | HCC 2998 > 10 µM | UACC-62 1.95 µM | K562 > 10 µM | NCI-H460 > 10 µM | CCRF-CEM > 10 µM | SNB-75 > 10 µM | HOP-62 > 10 µM | UO-31 > 10 µM | LOX IMVI > 10 µM | T47D > 10 µM | BT-549 > 10 µM | SK-OV-3 > 10 µM
